Source: EP1377579B1 (Aventis Pharmaceuticals Inc., priority 2000, dated 2002)
Counter-ions that a name gives are not always drawn.

Assays:
MDA-MB-435 = assay: In vitro proliferation assay (MTT), MDA-MB-435; type: cell-based, human; conditions: Homo sapiens, MDA-MB-435, MTT assay; value (SD, n) where given; read-out: MB-435 Breast (IC50 µM)
Outline: (§1)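 Following 3 days of compound treatment, MTT was added and the dye dissolved in DMSO for 570 nm absorbance; IC50s derived from these raw readings. Seeding density 1000 to 2500 cells/well depending on line, with overnight recovery before dosing.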

NCI-H460 = assay: In vitro proliferation assay (MTT), NCI-H460; type: cell-based; conditions: Homo sapiens, NCI-H460; MTT assay; value (SD, n) where given; read-out: H-460 Lung (IC50 µM)
Description: (§2) The proliferation of tumor cells can be measured using a tetrazolium salt-based assay known as the MTT (3-[4,5-Dimethylthiazol-2-yl]-2,5-diphenyltetrazolium bromide) assay. The proliferation test is performed essentially as described by Carmichael et al., Cancer Res. 47: 936-942, 1987. For the assay, the cell lines are plated onto 96 well plates at 1000 to 2500 cells/well (depending on the properties of the individual cell lines), left to attach and recover overnight. […] After 3 days, the cells are incubated with MTT dye (3-[4,5-Dimethylthiazol-2-yl]-2,5-diphenyltetrazolium bromide, Sigma # M5655, 10 mg/ml in Hank's Buffered Saline) to estimate the amount of live cells remaining vs. concentration for the test compounds. Specifically, MTT solution is added to a final concentration of […] and the plates incubated at 37 C for 2 to 4 hr. The MTT and culture medium is then removed from the cultures and 200 µl of DMSO is added to solubilize the dye from the cell layer. The absorbance at 570 nm is determined for each culture using a Spectramax plate reader (Molecular Devices).
(§3) IC50s were determined from the raw data from either the MTT or SRB assays.
All of the cell lines were obtained from American Type Tissue Collection, with the ATCC accession number in parentheticals. MCF-7 and MDA-MB-231 cells were grown in improved minimum essential medium (Biofluids) without phenol red, supplemented with 5 % fetal bovine serum, 0.01 mg/ml gentamicin and 3 mM L-glutamine. All of the other cell lines were grown in RPMI 1640 medium (Life Technologies) supplemented with 5 % fetal bovine serum, 0.01 mg/ml gentamicin and 3 mM L-glutamine TABLE 3

cdk4/cyclin D1 = cdk4/cyclin D1 (Homo sapiens, UniProt P11802); assay: Cyclin-dependent kinase assay, cdk4/cyclin D1; type: biochemical; conditions: cyclin D1/cdk4; GST-pRb substrate, 10 µM ATP
Colo-205 = assay: In vitro proliferation assay (MTT), Colo-205; type: cell-based; conditions: Homo sapiens, COLO 205; MTT assay; value (SD, n) where given; read-out: Colo-205 Colon (IC50 µM)
Description: as §2, §3

cdk1/cyclin B = cdk1/cyclin B (Homo sapiens, UniProt P06493); assay: Cyclin-dependent kinase assay, cdk1/cyclin B; conditions: CDK1 IC50, nM, Histone H1, 10 µM ATP
cdk2/cyclin E = cdk2/cyclin E (Homo sapiens, UniProt P24941); assay: Cyclin-dependent kinase assay, cdk2/cyclin E; conditions: CDK2 IC50, nM, GST-pRb substrate, 10 µM ATP
PC-3 = assay: In vitro proliferation assay (MTT), PC-3; type: cell-based, human; conditions: Homo sapiens, PC-3, MTT assay; value (SD, n) where given; read-out: PC-3 Prostate (IC50 µM)
Outline: as §1

in vivo = conditions: mouse, in vivo, iv, 3 mg/kg

Sequence of cdk1/cyclin B (P06493 whole entry): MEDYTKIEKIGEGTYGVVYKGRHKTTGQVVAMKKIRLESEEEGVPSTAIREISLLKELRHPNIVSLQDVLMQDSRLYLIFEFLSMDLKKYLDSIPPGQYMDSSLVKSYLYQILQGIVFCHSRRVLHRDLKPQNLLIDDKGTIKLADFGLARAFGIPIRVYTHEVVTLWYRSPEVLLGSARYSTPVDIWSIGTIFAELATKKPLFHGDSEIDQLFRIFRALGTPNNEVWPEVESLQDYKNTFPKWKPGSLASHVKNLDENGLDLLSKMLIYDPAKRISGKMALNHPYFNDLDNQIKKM
Sequence of cdk1/cyclin B (P14635 whole entry partner): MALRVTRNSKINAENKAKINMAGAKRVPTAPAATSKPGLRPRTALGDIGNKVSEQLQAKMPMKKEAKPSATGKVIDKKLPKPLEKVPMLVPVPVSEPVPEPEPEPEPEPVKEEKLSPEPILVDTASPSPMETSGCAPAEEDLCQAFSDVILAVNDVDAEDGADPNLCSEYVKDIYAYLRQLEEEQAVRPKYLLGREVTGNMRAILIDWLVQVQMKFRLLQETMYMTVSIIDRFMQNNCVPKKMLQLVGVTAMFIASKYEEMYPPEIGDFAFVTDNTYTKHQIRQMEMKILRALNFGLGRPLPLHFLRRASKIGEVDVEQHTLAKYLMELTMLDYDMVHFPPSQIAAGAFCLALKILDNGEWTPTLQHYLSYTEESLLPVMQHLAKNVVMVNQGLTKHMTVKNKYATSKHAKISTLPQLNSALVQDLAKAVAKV
Sequence of cdk4/cyclin D1 (P11802 whole entry): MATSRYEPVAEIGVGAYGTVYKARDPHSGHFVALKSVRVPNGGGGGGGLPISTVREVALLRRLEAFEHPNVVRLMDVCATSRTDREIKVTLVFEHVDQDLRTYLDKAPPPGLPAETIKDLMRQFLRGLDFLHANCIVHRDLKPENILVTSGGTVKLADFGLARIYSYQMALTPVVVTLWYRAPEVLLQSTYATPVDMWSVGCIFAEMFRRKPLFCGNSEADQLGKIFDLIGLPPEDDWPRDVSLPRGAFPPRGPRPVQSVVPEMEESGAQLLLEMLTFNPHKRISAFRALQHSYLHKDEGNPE
Sequence of cdk4/cyclin D1 (P24385 whole entry partner): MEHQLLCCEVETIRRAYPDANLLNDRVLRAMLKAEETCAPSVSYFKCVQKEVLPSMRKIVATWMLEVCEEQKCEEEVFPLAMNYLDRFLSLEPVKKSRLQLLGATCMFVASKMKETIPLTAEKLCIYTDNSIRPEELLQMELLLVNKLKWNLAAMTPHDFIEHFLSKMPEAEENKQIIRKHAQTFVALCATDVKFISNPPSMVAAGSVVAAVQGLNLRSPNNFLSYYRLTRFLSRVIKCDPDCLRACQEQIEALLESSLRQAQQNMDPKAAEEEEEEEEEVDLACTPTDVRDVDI

IC50 (MDA-MB-435) [µM] | IC50 (NCI-H460) [µM] | IC50 (cdk4/cyclin D1) [nM] | IC50 (Colo-205) [µM] | IC50 (cdk1/cyclin B) [nM] | IC50 (cdk2/cyclin E) [nM] | IC50 (PC-3) [µM] | AUC(0-inf) (in vivo) [ng·h/mL] | Cmax (in vivo) [ng/mL] | half-life (in vivo) [h] | SMILES
0.31 | 0.28 | 485 | < 0.02 | 76 | 154 | 0.45 | – | – | – | CC(CC(=O)N1CCC(Nc2nc(N[C@H]3CC[C@H](N)CC3)nc3c2ncn3C2CCCC2)CC1)CC(C)(C)C (mixture of isomers) [compound 45, (±)-trans-1-{4-[2-(4-Amino-cyclohexylamino)-9-cyclopentyl-9H-purin-6-ylamino]-piperidin-1-yl}-3,5,5-trimethyl-hexan-1-one dihydrochloride]
0.14 | 0.29 | 170 | 0.18 | 7 | 10 | 0.43 | – | – | – | N[C@H]1CC[C@H](Nc2nc(NC3CCN(S(=O)(=O)c4ccc(Cl)cc4)CC3)c3ncn(C4CCCC4)c3n2)CC1 [compound 108, trans-N -(4-Amino-cyclohexyl)-9-cyclopentyl-N^6-[1-(4-chloro-benzenesulfonyl)-piperidin-4-yl]-9H-purine-2,6-diamine dihydrochloride]
0.17 | 0.17 | 709 | 0.06 | 153 | 55 | 0.19 | – | – | – | N[C@H]1CC[C@H](Nc2nc(NC3CCN(C(=O)CSc4ccccc4)CC3)c3ncn(C4CCCC4)c3n2)CC1 [compound 46, trans-1-{4-[2-(4-Amino-cyclohexylamino)-9-cyclopentyl-9H-purin-6-ylamino]-piperidin-1-yl}-2-phenylsulfanylethanone dihydrochloride]
– | – | – | – | – | – | – | 531 | 512 | 1.7 | NC1CCC(Nc2nc(NCCCc3ccccc3)c3ncn(C4CCCC4)c3n2)CC1 (stereo not drawn) [MDL 107167]
0.22 | 0.53 | – | 0.03 | – | 76 | 0.29 | – | – | – | N[C@H]1CC[C@H](Nc2nc(NC3CCN(C(=O)/C=C/c4cccc(C(F)(F)F)c4)CC3)c3ncn(C4CCCC4)c3n2)CC1 [compound 44, trans-(E)-1-{4-[2-(4-Amino-cyclohexylamino)-9-cyclopentyl-9H-purin-6-ylamino]-piperidin-1-yl}-3-(3-trifluoromethyl-phenyl)-propenone dihydrochloride]
0.25 | – | 483 | – | 44 | 73 | 0.27 | – | – | – | N[C@H]1CC[C@H](Nc2nc(NC3CCN(C(=O)c4cc(Cl)cc(Cl)c4)CC3)c3ncn(C4CCCC4)c3n2)CC1 [compound 79, trans-1-{4-[2-(4-Amino-cyclohexylamino)-9-cyclopentyl-9H-purin-6-ylamino]-piperidin-1-yl}-1-(3,5-dichloro-phenyl)-methanone]
0.52 | 0.4 | – | 0.29 | – | – | 0.69 | – | – | – | CC(C)[C@@H]1CC[C@@H](C)C[C@H]1OC(=O)N1CCC(Nc2nc(N[C@H]3CC[C@H](N)CC3)nc3c2ncn3C2CCCC2)CC1 [compound 86, trans-4-[2-(4-Amino-cyclohexylamino)-9-cyclopentyl-9H-purin-6-ylamino]-piperidine-1-carboxylic acid (1R,2S,5R)-2-isopropyl-5-methyl-cyclohexyl ester dihydrochloride]
0.67 | – | 732 | – | 61 | 291 | 0.74 | – | – | – | N[C@H]1CC[C@H](Nc2nc(NC3CCN(C(=O)c4ccc(Cl)c(Cl)c4)CC3)c3ncn(C4CCCC4)c3n2)CC1 [compound 15, trans-1-{4-[2-(4-Amino-cyclohexylamino)-9-cyclopentyl-9H-purin-6-ylamino]-piperidin-1-yl}-1-(3,4-dichloro-phenyl)-methanone]
2.25 | – | 682 | – | 161 | 352 | 1.96 | – | – | – | CC(C)(C)c1ccc(C(=O)N2CCC(Nc3nc(N[C@H]4CC[C@H](N)CC4)nc4c3ncn4C3CCCC3)CC2)cc1 [compound 20, trans-1-{4-[2-(4-Amino-cyclohexylamino)-9-cyclopentyl-9H-purin-6-ylamino]-piperidin-1-yl}-1-(4-tert-butyl-phenyl)-methanone]
0.43 | 0.27 | – | < 0.02 | – | – | 0.66 | – | – | – | N[C@H]1CC[C@H](Nc2nc(NC3CCN(C(=O)c4ccc5c(c4)OCO5)CC3)c3ncn(C4CCCC4)c3n2)CC1 [compound 5, trans-1-{4-[2-(4-Amino-cyclohexylamino)-9-cyclopentyl-9H-purin-6-ylamino]-piperidin-1-yl}-1-benzo[1,3]dioxol-5-yl-methanone dihydrochloride]
4.12 | – | 8800 | – | 21 | 70 | 6.32 | – | – | – | CC(C)n1cnc2c(NC3CCN(S(=O)(=O)c4ccc(C#N)cc4)CC3)nc(N[C@H]3CC[C@H](N)CC3)nc21 [compound 145, trans-4-{4-[2-(4-Amino-cyclohexylamino)-9-isopropyl-9H-purin-6-ylamino]-piperidine-1-sulfonyl} -benzonitrile dihydrochloride]
6.54 | – | 39 | – | 18 | 7 | 5.89 | – | – | – | CC(=O)Nc1nc(C)c(S(=O)(=O)N2CCC(Nc3nc(N[C@H]4CC[C@H](N)CC4)nc4c3ncn4C3CCCC3)CC2)s1 [compound 113, trans-N-(5-{4-[2-(4-Amino-cyclohexylamino)-9-cyclopentyl-9H-purin-6-ylamino]-piperidine-1-sulfonyl}-4-methyl-thiazol-2-yl)-acetamide dihydrochloride]
4.7 | – | 699 | – | 197 | 61 | 4.79 | – | – | – | CCNC(=O)N1CCC(Nc2nc(N[C@H]3CC[C@H](N)CC3)nc3c2ncn3C2CCCC2)CC1 [compound 148, trans-4-[2-(4-Amino-cyclohexylamino)-9-cyclopentyl-9H-purin-6-ylamino]-piperidine-1-carboxylic acid ethylamide dihydrochloride]
0.69 | – | 7000 | – | 197 | 612 | 0.56 | – | – | – | CC(C)n1cnc2c(NC3CCN(C(=O)Nc4ccc(OC(F)(F)F)cc4)CC3)nc(N[C@H]3CC[C@H](N)CC3)nc21 [compound 211, trans-4-[2-(4-Amino-cyclohexylamino)-9-isopropyl-9H-purin-6-ylamino]-piperidine-1-carboxylic acid (4-trifluoromethoxy-phenyl)-amide dihydrochloride]
1.31 | – | 410 | – | 100 | 73 | 1.35 | – | – | – | Cc1cccc(C(=O)N2CCC(Nc3nc(N[C@H]4CC[C@H](N)CC4)nc4c3ncn4C3CCCC3)CC2)c1 [compound 73, trans-1-{4-[2-(4-Amino-cyclohexylamino)-9-cyclopentyl-9H-purin-6-ylamino]-piperidin-1-yl}-1-(3-methyl-phenyl)-methanone]
0.31 | – | 795 | – | 48 | 89 | 0.27 | – | – | – | N[C@H]1CC[C@H](Nc2nc(NC3CCN(C(=O)Nc4ccccc4OC(F)(F)F)CC3)c3ncn(C4CCCC4)c3n2)CC1 [compound 174, trans-4-[2-(4-Amino-cyclohexylamino)-9-cyclopentyl-9H-purin-6-ylamino]-piperidine-1-carboxylic acid (2-trifluoromethoxy-phenyl)-amide dihydrochloride]
0.75 | – | 503 | – | 48 | 61 | 0.84 | – | – | – | N[C@H]1CC[C@H](Nc2nc(NC3CCN(C(=O)Cc4ccc(F)cc4)CC3)c3ncn(C4CCCC4)c3n2)CC1 [compound 48, trans-1-{4-[2-(4-Amino-cyclohexylamino)-9-cyclopentyl-9H-purin-6-ylamino]-piperidin-1-yl}-2-(4-fluoro-phenyl)-ethanone dihydrochloride]
